From ChEMBL document CHEMBL1131672, “6-(1-Hydroxyalkyl))penam sulfone derivatives as inhibitors of class A and class C beta-lactamases II” (Bioorg Med Chem Lett, 1999) come the findings set out here.

A word on the ED50: it is the dose that gives a 50% effect, or the effect in half of the subjects. High values mean weaker potency, low ones greater potency. The term MIC denotes the lowest concentration found to suppress growth. Low values mean inhibition by little substance, high ones a need for much substance. The IC50 is the concentration needed to halve the response being measured.

Values after ≈ are worked out from the molar mass of the structure shown.

Test [1] relates to Escherichia coli. In words: In vivo inhibitory activity against Escherichia coli in mice. It is filed as functional.
In test [2] the test system is Escherichia coli. In words: In vitro inhibitory activity against Escherichia coli. The format is functional.
For test [3], the system named is Serratia marcescens. In words: In vitro inhibitory activity against Serratia marcescens. The format is functional.
The subject of test [4] is Serratia marcescens. Briefly: In vivo inhibitory activity against Serratia marcescens in mice. The format is functional.
In a further test the target is Beta-lactamase (Escherichia coli K-12, UniProt P00811). In words: Inhibitory activity against AmpC (class C) beta-lactamase.
Chain of Beta-lactamase (P00811 whole entry): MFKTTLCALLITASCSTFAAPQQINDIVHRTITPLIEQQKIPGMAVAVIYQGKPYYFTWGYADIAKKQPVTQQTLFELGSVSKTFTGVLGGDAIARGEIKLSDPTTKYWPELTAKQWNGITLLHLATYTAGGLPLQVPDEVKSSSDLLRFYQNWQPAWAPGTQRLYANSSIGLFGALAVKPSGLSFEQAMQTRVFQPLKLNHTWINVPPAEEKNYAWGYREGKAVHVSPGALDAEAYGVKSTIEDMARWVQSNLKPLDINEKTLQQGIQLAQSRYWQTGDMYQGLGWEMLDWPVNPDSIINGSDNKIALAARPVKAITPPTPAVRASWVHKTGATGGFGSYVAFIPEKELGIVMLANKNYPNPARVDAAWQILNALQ
A further test has as its target Beta-lactamase TEM (Escherichia coli, UniProt P62593). Briefly: Inhibitory activity against TEM-1 (class A) beta-lactamase.

Chain of Beta-lactamase TEM (P62593 whole entry): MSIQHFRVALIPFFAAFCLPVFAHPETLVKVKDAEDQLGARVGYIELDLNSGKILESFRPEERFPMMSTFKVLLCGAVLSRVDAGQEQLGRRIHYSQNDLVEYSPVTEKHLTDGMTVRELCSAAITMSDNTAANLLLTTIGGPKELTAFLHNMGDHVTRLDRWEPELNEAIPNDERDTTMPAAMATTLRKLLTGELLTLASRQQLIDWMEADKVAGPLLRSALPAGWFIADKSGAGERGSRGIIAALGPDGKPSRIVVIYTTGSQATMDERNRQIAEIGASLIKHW

Regarding `C[C@]1(Cn2ccnn2)[C@H](C(=O)[O-])N2C(=O)C[C@H]2S1(=O)=O.[Na+]` [TAZOBACTAM SODIUM], the ED50 in the test on Escherichia coli [1] worked out at 7.7 mg/kg; in the test on Serratia marcescens [4], 144 mg/kg. Further, the MIC with Escherichia coli [2] worked out at 2 µg/mL; in the test with Serratia marcescens [3], 32 µg/mL.
The corresponding values for `CCN1CCN(C(=O)N[C@@H](C(=O)N[C@@H]2C(=O)N3[C@@H]2SC(C)(C)[C@@H]3C(=O)O)c2ccccc2)C(=O)C1=O` [PIPERACILLIN] are 256 mg/kg, 128 mg/kg, over 64 µg/mL and 32 µg/mL (≈ 61.8 µM).
Turning to `C[C@]1(/C=C\C#N)[C@H](C(=O)[O-])N2C(=O)[C@@H](CO)[C@H]2S1(=O)=O.[Na+]`, the ED50 in the test with Escherichia coli [1] was 4 mg/kg; in the test on Serratia marcescens [4] it was 16 mg/kg. The MIC is 4 µg/mL against Escherichia coli [2] and 8 µg/mL in the test with Serratia marcescens [3]. Also, the IC50 against Beta-lactamase stood at 270 nM.
Turning to `C[C@]1(/C=C/C#N)[C@H](C(=O)[O-])N2C(=O)[C@@H](CO)[C@H]2S1(=O)=O.[Na+]`, the MIC in the test on Escherichia coli [2] came out at 16 µg/mL; in the test with Serratia marcescens [3], 4 µg/mL. In addition, on Beta-lactamase, the IC50 was 280 nM.
With `CC1(C=CC#N)[C@H](C(=O)O)N2C(=O)C[C@H]2S1(=O)=O` (single isomer, unassigned) [Ro-481220], the figures for the ED50 in the test with Escherichia coli [1] and in the test with Serratia marcescens [4] were 15 mg/kg and 82 mg/kg, respectively. In addition, the MIC with Escherichia coli [2] and against Serratia marcescens [3] was 4 µg/mL (≈ 14.8 µM) in each case. The IC50 against Beta-lactamase TEM was 42 nM; on Beta-lactamase it was 1130 nM.
Take `CO/N=C/C1(C)[C@H](C(=O)O)N2C(=O)[C@@H](CO)[C@H]2S1(=O)=O` (single isomer, unassigned): the results for the MIC against Escherichia coli [2] and in the test with Serratia marcescens [3] were 8 µg/mL (≈ 26.1 µM) and 16 µg/mL (≈ 52.2 µM), respectively. The IC50 against Beta-lactamase TEM turned out to be 64 nM; against Beta-lactamase, 280 nM.
In the case of `C[C@]1(Cn2ccnn2)[C@H](C(=O)[O-])N2C(=O)[C@@H](CO)[C@H]2S1(=O)=O.[Na+]`, the ED50 stood at 3.6 mg/kg in the test on Escherichia coli [1] and 125 mg/kg with Serratia marcescens [4]. Moreover, the MIC was 2 µg/mL in the test with Escherichia coli [2] and 16 µg/mL against Serratia marcescens [3]. On Beta-lactamase TEM, this compound returned an IC50 of 6 nM.
